Patent US20250228865A1, “COMPOUNDS FOR ENHANCING READ THROUGH OF GENES CONTAINING PREMATURE TERMINATION CODONS AND METHODS FOR MAKING AND USING THE SAME” (Sanofi US Services Inc., priority 2022, published 2025)

Legend:
[1] = test system: CFTR R1162X; assay: Functional CFTR channel activity, TECC-24 electrophysiology, 16HBE cells (CFTR R1162X readthrough); type: cell-based, human
Experimental: 16HBE human bronchial epithelial cells were seeded onto Transwell 24-well filter inserts coated with human collagen type IV. Cells were seeded 7 days prior to functional testing at a density of 1.7×10^5 cells onto the “apical” chamber filter of the Transwell insert. Cells were grown as submerged cultures (200 μL apical/700 μL basolateral) in Minimal Essential Medium (MEM) containing 10% qualified Fetal Bovine Serum and 1% Penicillin/Streptomycin and incubated at 37° C. and 5% CO2. Growth media on cells was replenished with fresh media every 1-3 days prior to test agent treatment day. After 7 days in culture, the CFTR-mediated chloride (Cl^−) equivalent current (Ieq) of the 16HBE cells was recorded, which may typically form electrically tight epithelia with a transepithelial resistance (Rt) of 2000-6000 Ω·cm2 as described below. Forty-eight hours prior to electrophysiological measurements, fresh growth media containing the test agents was applied to both chambers separating filter bound epithelial monolayer.
On the day of electrophysiology studies, electrodes of a “Multi-(24-channel) transepithelial current clamp amplifier” (MTECC-24 (TECC-24 for short), EP Devices, Belgium) were soaked in an assay buffer (see below for composition) for at least 2 hours using 24-well Transwell plates without inserts. Cell culture media was replaced in the Transwell assay plates with assay buffer (see below) and the plates were mounted onto a custom-built automated robotic assay platform (Yamaha RCX240S controller) with heated plate holders set at 37° C. for 60 min. After equilibration, transepithelial potential difference (PD) and resistance (Rt) was monitoredat ˜5 min intervals using the TECC-24 transepithelial current clamp. Electrode potential differences were monitored for each pair of Ag/AgCl voltage electrodes by taking voltage measurements from a control (“blank”) plate with matching buffer solutions and 16HBE cells that were not treated with any test agent. PD values for each electrode pair were subtracted from the blank plate from that of the test plates at each time point. Ieq was calculated from the corrected PD values and Rt using Ohm's law. Ieq values were slope corrected to account for measurement drift over time using the equation: Slope corrected value=calculated Ieq−((time x slope)+y-intercept) with the slope and y-intercept calculated from the data points captured during the initial baseline period and following addition of the CFTR inhibitor.
The equivalent current (Ieq) traces associated with CFTR channel activation were plotted as baseline subtracted mean±standard deviation from 3-4 separate wells on the 24-well Transwell (n=3-4). There are 4 recording periods, with the first set of data points recorded baseline Ieq currents prior to sequential activation of available CFTR channels with forskolin (10 μM) and then in combination with potentiator VX-770/ivacaftor (1 μM). Recorded the last set of data points in the presence of CFTR inhibitor CFTRinh-172 (20 μM) to confirm that currents are mediated via activation of CFTR channels. The test agents and control/reference compounds were pre-diluted to 10-fold concentrations in assay buffer and added manually using a multi-channel pipette to both the basolateral and apical side of the membrane (test plates only). Employed CFTR-mediated changes in Ieq, (i.e. forskolin/VX-770 activated currents) to measure functional CFTR surface expression or treatment-related functional rescue of mutant CFTR.
The magnitude of test agent mediated enhancement of functional CFTR currents was calculated by comparing forskolin/VX-770 stimulated Ieq relative to baseline/CFTRinh-172 Ieq following 48 hour pretreatment with test agent(s) and normalizing to the forskolin/VX-770 stimulated Ieq determined following 48 hour pretreatment with a maximally effective concentration a reference control aminoglycoside agent (typically 110 μM G418). […]

[2] = test system: recombinant human CFTR carrying the premature stop codon (PTC) mutation G542X; assay: CFTR-PTC mutant translation readthrough, Nanoluc tagged CFTR luminescence (G542X cell line); type: cell-based; settings: in combination with G418, G542X cell line; for CFTR G542X ACTIVITY Fold 10 μM G-418: fold over 10 μM G-418; for EC50: 16HBE cells
Outline: (§1)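 16HBE cells stably expressing Nanoluc-tagged human CFTR with G542X or R1162X, in medium with 3 μM VX-809, treated 48 h at 37 °C with compound (10-point, 2-fold, top 50 μM final) alone or with 10 μM G418. Live-cell Nanoluc luminescence normalised to a maximally effective G418 (125-250 μM).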

[3] = test system: recombinant human CFTR carrying the premature stop codon (PTC) mutation R1162X; assay: CFTR-PTC mutant translation readthrough, Nanoluc tagged CFTR luminescence (R1162X cell line); type: cell-based; settings: for CFTR R1162X ACTIVITY Fold 10 μM G-418: fold over 10 μM G-418, in combination with G418; for EC50: in combination with G418, 16HBE cells, read-out: CFTR R1162X ACTIVITY EC50
Outline: as §1

[4] = RTM 1 uM, no eRF3 modulator, ELX-02 100 uM
[5] = RTM 1 uM, eRF3 modulator (CC-90009) 1 uM, ELX-02 100 uM

Row | SMILES | CFTR G542X ACTIVITY Fold 10 μM G-418 [2] | EC50 [2] [µM] | CFTR R1162X ACTIVITY Fold 10 μM G-418 [3] | EC50 [3] [µM] | further results
1 | OCc1cn(-c2ncc(OCc3c(Cl)cccc3Cl)cn2)cn1 [drawing 800] |  |  |  |  | Currents (% of 110 μM G418 (Max effect)) ([1]; RTM 0.5 uM, eRF3 modulator (CC-90009) 1 uM, ELX-02 100 uM): 473 % of 110 μM G418 (Max effect)
2 | Cc1cccc(C(F)(F)F)c1COc1ccc(-c2nc(CO)n[nH]2)cc1 [drawing 804] |  |  |  |  | Currents (% of 110 μM G418 (Max effect)) [1, 4]: 106 % of 110 μM G418 (Max effect)
3 | O=C1N[C@H](CO)CN1c1ccc(OCc2c(Cl)cccc2Cl)cn1 [drawing 807] |  |  |  |  | Currents (% of 110 μM G418 (Max effect)) [1, 4]: 70 % of 110 μM G418 (Max effect)
4 | OCc1ncn(-c2ncc(OCc3c(Cl)cccc3C(F)(F)F)cn2)n1 [drawing 811] |  |  |  |  | Currents (% of 110 μM G418 (Max effect)) ([1]; RTM conc. —, eRF3 modulator (CC-90009) 1 uM, ELX-02 100 uM): 77 % of 110 μM G418 (Max effect)
5 | OCc1cn(-c2ncc(OCc3c(Cl)cccc3Cl)cn2)cn1 [drawing 813] |  |  |  |  | Currents (% of 110 μM G418 (Max effect)) ([1]; RTM 0.5 uM, no eRF3 modulator, Paramomycin 2000 uM): 7 % of 110 μM G418 (Max effect)
6 | OCc1cn(-c2ncc(OCc3c(Cl)cccc3Cl)cn2)cn1 [drawing 798] |  |  |  |  | Currents (% of 110 μM G418 (Max effect)) ([1]; RTM 0.5 uM, eRF3 modulator (CC-90009) 1 uM, G418 10 uM): 472 % of 110 μM G418 (Max effect)
7 | O=C1N[C@H](CO)CN1c1ccc(OCc2c(Cl)cccc2Cl)cn1 [drawing 809] |  |  |  |  | Currents (% of 110 μM G418 (Max effect)) [1, 5]: 266 % of 110 μM G418 (Max effect)
8 | O=C1O[C@@H](CO)CN1c1ccc(OCc2c(Cl)cccc2Cl)cc1 [drawing 819] |  |  |  |  | Currents (% of 110 μM G418 (Max effect)) ([1]; RTM 5 uM, no eRF3 modulator, G418 10 uM): 81 % of 110 μM G418 (Max effect)
9 | OCc1ccn(-c2ncc(OCc3c(Cl)cccc3Cl)cn2)n1 [drawing 803] |  |  |  |  | Currents (% of 110 μM G418 (Max effect)) [1, 5]: 300 % of 110 μM G418 (Max effect)
10 | O=C1O[C@H](CO)CN1c1ccc(OCc2c(Cl)cccc2Cl)cc1 [drawing 818] |  |  |  |  | Currents (% of 110 μM G418 (Max effect)) ([1]; RTM 5 uM, eRF3 modulator (CC-90009) 10 uM, G418 10 uM): 314 % of 110 μM G418 (Max effect)
11 | Cc1cccc(C(F)(F)F)c1COc1ccc(-n2cnc(Cn3cnc(CO)c3)c2)nc1 | A′ (A′ = ≥10X) | 1 to 10 | A′ (A′ = ≥10X) | 1 to 10 | 
12 | O=C1OC(CO)CN1c1ncc(OCc2c(Cl)cccc2C(F)(F)F)cn1 (centres unmarked) | A′ (A′ = ≥10X) | 1 to 10 | A′ (A′ = ≥10X) | 1 to 10 | 
13 | O=C1CN(c2ncc(OCc3c(Cl)cccc3C(F)(F)F)cn2)C(=O)N1 | A′ (A′ = ≥10X) | 1 to 10 | A′ (A′ = ≥10X) | 1 to 10 | 
14 | Cc1cccc(C(F)(F)F)c1COc1cnc(N(C)CCCCO)nc1 | A′ (A′ = ≥10X) | < 1 | A′ (A′ = ≥10X) | < 1 | 
15 | O=C1OC(CO)CN1c1ncc(OC(F)(F)c2c(Cl)cccc2Cl)cn1 (centres unmarked) |  | > 10 |  | > 10 | 
16 | CCCCN1CC(=O)N(c2ccc(OCc3c(C)cccc3C(F)(F)F)cc2)C1=O | B′ (B′ = ≥5X to <10X) | 1 to 10 | B′ (B′ = ≥5X to <10X) | 1 to 10 | 

Row | SMILES | CFTR G542X ACTIVITY Fold 10 μM G-418 [2] | EC50 [2] [µM] | CFTR R1162X ACTIVITY Fold 10 μM G-418 [3] | EC50 [3] [µM] | further results
17 | NCc1ccn(-c2ccc(OCc3c(Cl)cccc3Cl)cc2)n1 [[1-[4-[(2,6-dichlorophenyl)methoxy]phenyl]pyrazol-3-yl]methanamine] | B′ (B′ = ≥5X to <10X) | 1 to 10 | A′ (A′ = ≥10X) | 1 to 10 | 
18 | O=C1NC2(CC2)C(=O)N1c1ccc(OCc2c(Cl)cccc2C(F)(F)F)cc1 | A′ (A′ = ≥10X) | < 1 | A′ (A′ = ≥10X) | 1 to 10 | 
19 | Cc1cccc(C(F)(F)F)c1COc1cnc(N2CCC[C@@H](O)C2)nc1 | A′ (A′ = ≥10X) | < 1 | A′ (A′ = ≥10X) | 1 to 10 | 
20 | NC(=O)N1CCN(c2ncc(OCc3c(Cl)cccc3Cl)cn2)CC1CO (centres unmarked) | A′ (A′ = ≥10X) | < 1 | A′ (A′ = ≥10X) | < 1 | 
21 | NC(=O)C1CN(c2ncc(OCc3c(Cl)cccc3C(F)(F)F)cn2)CC(=O)N1 (centres unmarked) | C′ (C′ = <5X) | 1 to 10 | C′ (C′ = <5X) | 1 to 10 | 
22 | Cc1cccc(C(F)(F)F)c1COc1cnc(N2CCN3C(=O)COCC3C2)nc1 (centres unmarked) | A′ (A′ = ≥10X) | < 1 | A′ (A′ = ≥10X) | < 1 | 
23 | Cn1cnc(-c2ccc(OCc3c(Cl)cccc3Cl)cc2)c1 [4-[4-[(2,6-dichlorophenyl)methoxy]phenyl]-1-methyl-imidazole] | A′ (A′ = ≥10X) | 1 to 10 | A′ (A′ = ≥10X) | 1 to 10 | 
24 | CN(C(N)=O)c1ncc(OCc2c(Cl)cccc2Cl)cn1 [1-[5-[(2,6-dichlorophenyl)methoxy]pyrimidin-2-yl]-1-methyl-urea] | A′ (A′ = ≥10X) | 1 to 10 | A′ (A′ = ≥10X) | 1 to 10 | 
25 | OCc1cnn(-c2ncc(OCc3c(Cl)cccc3C(F)(F)F)cn2)n1 | A′ (A′ = ≥10X) | < 1 |  | 1 to 10 | 
26 | CC1CN(c2ncc(OCc3c(Cl)cccc3Cl)cn2)CCC1O (centres unmarked) [1-[5-[(2,6-dichlorophenyl)methoxy]pyrimidin-2-yl]-3-methyl-piperidin-4-ol] | A′ (A′ = ≥10X) | < 1 | A′ (A′ = ≥10X) | < 1 | 
27 | Cc1cccc(C(F)(F)F)c1COc1cnc(NC(=O)N(C)C)nc1 | A′ (A′ = ≥10X) | 1 to 10 | C′ (C′ = <5X) | 1 to 10 | 
28 | O=C1COC(CO)CN1c1ccc(OCc2c(Cl)cccc2C(F)(F)F)cn1 (centres unmarked) | A′ (A′ = ≥10X) | 1 to 10 | A′ (A′ = ≥10X) | 1 to 10 | 
29 | O=C1NC2(CCCC2)C(=O)N1c1ncc(OCc2c(Cl)cccc2Cl)cn1 | A′ (A′ = ≥10X) | 1 to 10 | A′ (A′ = ≥10X) | > 10 | 
30 | CC(O)C1CCN(c2ncc(OCc3c(Cl)cccc3Cl)cn2)C1 (centres unmarked) [1-[1-[5-[(2,6-dichlorophenyl)methoxy]pyrimidin-2-yl]pyrrolidin-3-yl]ethanol] | A′ (A′ = ≥10X) | 1 to 10 | A′ (A′ = ≥10X) | 1 to 10 | 
31 | Cc1cccc(C(F)(F)F)c1COc1ccc(-n2cc(CO)nn2)cc1 [[1-[4-[[2-methyl-6-(trifluoromethyl)phenyl]methoxy]phenyl]triazol-4-yl]methanol] | A′ (A′ = ≥10X) | 1 to 10 | A′ (A′ = ≥10X) | 1 to 10 | 
32 | Cc1cccc(C(F)(F)F)c1COc1cnc(-n2cnnc2)nc1 [5-[[2-methyl-6-(trifluoromethyl)phenyl]methoxy]-2-(1,2,4-triazol-4-yl)pyrimidine] | A′ (A′ = ≥10X) | 1 to 10 | A′ (A′ = ≥10X) | 1 to 10 | 
